Patent US7649013B2, “Methods of protecting against radiation injury” (priority 2003, dated 2010)

System: C57BL/6J inbred strain female mice
Experiment: Survival after 8 Gy whole body γ-irradiation, intraperitoneal dosing 4 hours before or after (Example 4)
Format: in vivo
Conditions: 10 mg/kg 4 hr before Radiation 8 Gy
Procedure: β-lapachone is prepared at 10 mg/ml in 40% hydroxypropyl-beta-cyclodextrin (HPBCD).
C57BL/6J inbred strain female mice (4-5 weeks old) are used. Animals are maintained in a climate-controlled animal facility.
Animals are injected with different concentrations of β-lapachone (20 and 40 mg/kg body weight) intraperitoneally 4 hours before or after irradiation.
Whole body irradiation of animals with 8 Gy of γ-rays is carried out in air at room temperature in a gamma chamber (Gammacell 40 Exactor), at a dose-rate of 1.05 Gy/min. This radiation dose is within the range of equivalent human exposures predicted in many scenarios of radiologic or nuclear terrorist attack.
Mice are divided into the following groups (each Group comprises four mice receiving identical treatment):
Group II: Mice are injected with β-lapachone 20 mg/kg body weight 4 hours before radiation.
Group III: Mice are injected with β-lapachone 40 mg/kg body weight 4 hours before radiation.
Group IV: Mice are injected with β-lapachone 20 mg/kg body weight 4 hours after radiation.
Group V: Mice are injected with β-lapachone 40 mg/kg body weight 4 hours after radiation.
Group VI: Mice are injected with amifostine 10 mg/kg body weight 4 hours before radiation.
Animals are irradiated with 8 Gy at 1.05 Gy/min dose-rate. After irradiation mice are returned to their cage and observed on a regular basis. Exposure to γ-rays causes lethality in animals. Importantly, treatment with β-lapachone, especially at a level of 40 mg/kg prior to irradiation, diminishes the death rate.

Question: `NCCCNCCSP(=O)(O)O` [Amifostine, reference compound] was tested. Which “Median survival time” value did it give?
Answer: 12 days

Question: What about the “No. of animals surviving at 20 days post-irradiation” value (4 animals) of the same molecule?
Answer: 0

Question: And the “Death rate (%)” value (20 days)?
Answer: 100%

Question: What about the “Median survival time in days” value (listed as amifostine) of the same molecule?
Answer: little or no effect
